Source: patent US9029389B2 (Institut Pasteur Korea, priority 2011, dated 2015)

Legend:
Human 5-lipoxygenase = target: T1, Human 5-lipoxygenase (Homo sapiens, UniProt P09917); assay: Activity of compounds against 5-LO enzyme (LTB4 measurement and/or fluorescence method); type: biochemical; conditions: for inhibition at 10 µM: 5-LO, single concentration of 10 uM in duplicate; for IC50: 6 or 11 point dose response in duplicate
T1 construct: purchased Cayman 60402; host or cells: insect cells
T1 sequence (P09917 1-674): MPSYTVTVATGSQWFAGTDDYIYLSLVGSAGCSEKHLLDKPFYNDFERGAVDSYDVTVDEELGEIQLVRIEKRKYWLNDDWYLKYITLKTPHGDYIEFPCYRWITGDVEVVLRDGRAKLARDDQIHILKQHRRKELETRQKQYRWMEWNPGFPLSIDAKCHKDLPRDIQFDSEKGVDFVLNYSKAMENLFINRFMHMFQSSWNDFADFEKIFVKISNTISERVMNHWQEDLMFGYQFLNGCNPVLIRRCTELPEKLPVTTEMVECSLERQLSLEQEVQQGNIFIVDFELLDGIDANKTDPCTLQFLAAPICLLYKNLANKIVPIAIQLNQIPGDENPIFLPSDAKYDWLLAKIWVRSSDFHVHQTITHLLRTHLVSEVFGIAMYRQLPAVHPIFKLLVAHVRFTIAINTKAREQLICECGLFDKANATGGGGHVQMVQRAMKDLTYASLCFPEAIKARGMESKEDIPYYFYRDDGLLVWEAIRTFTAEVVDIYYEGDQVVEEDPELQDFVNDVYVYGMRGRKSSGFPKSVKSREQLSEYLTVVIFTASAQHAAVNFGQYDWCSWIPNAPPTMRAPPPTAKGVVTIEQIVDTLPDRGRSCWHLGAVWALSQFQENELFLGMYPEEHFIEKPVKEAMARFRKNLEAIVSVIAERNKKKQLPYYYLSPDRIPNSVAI
How it was run: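 Two read-outs: LTB4 measured by EIA and/or LC/MS/MS with LTB4-d4 standard after 15 min RT compound preincubation with insect-cell 5-LO and a 5 min 37 °C reaction on 3 uM arachidonic acid (0.1 mM ATP, pH 7.4). The room-temperature fluorescence format used 20 uM H2DCFDA, 100 uM ATP, 3 uM arachidonic acid, 5 min; IC50 from 6/11-point curves.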

SMILES	melting point	inhibition at 10 µM (Human 5-lipoxygenase) [%]	IC50 (Human 5-lipoxygenase) [nM]
CCc1nc2cc(Cl)ccn2c1C(=O)NCc1cccc(-c2ccc(OC(F)(F)F)cc2)c1 [compound 204, 7-Chloro-2-ethyl-N-((4′-(trifluoromethoxy)biphenyl-3-yl)methyl)imidazo[1,2-a]pyridine-3-carboxamide]	192.6 °C	< 40	
CCc1nc2c(OC(F)F)cccn2c1C(=O)NCc1ccc(N2CCOCC2)cc1 [compound 279, 8-(Difluoromethoxy)-2-ethyl-N-(4-morpholinobenzyl)imidazo[1,2-a]pyridine-3-carboxamide]	163 °C	< 40	
CCc1nc2ccc(Cl)cn2c1C(=O)N1CCC(Oc2ccc(OC(F)(F)F)cc2)CC1 [compound 384, (6-Chloro-2-ethylimidazo[1,2-a]pyridin-3-yl)(4-(4-(trifluoromethoxy)phenoxy)piperidin-1-yl)methanone]	80.7 °C		1000 to 20000
CCc1nc2c[n+]([O-])ccn2c1C(=O)NCc1ccc(OC(F)(F)F)cc1 [compound 142, 2-Ethyl-3-((4-(trifluoromethoxy)benzyl)carbamoyl)imidazo[1,2-a]pyrazine 7-oxide]	215 to 216 °C	40 to 69	
CCc1nc2cc(Cl)ccn2c1C(=O)NCc1ccc2oc(C3CCCCC3)nc2c1 [compound 299, 7-Chloro-N-((2-cyclohexylbenzo[d]oxazol-5-yl)methyl)-2-ethylimidazo[1,2-a]pyridine-3-carboxamide]	163 °C	> 69	< 1000
CCc1nc2ccc(C)cn2c1C(=O)NCc1ccc(N2CCN(c3ccc(F)cc3)CC2)cc1 [compound 231, 2-Ethyl-N-(4-(4-(4-fluorophenyl)piperazin-1-yl)benzyl)-6-methylimidazo[1,2-a]pyridine-3-carboxamide]	187.6 °C	> 69	1000 to 20000
CCc1nc2cc(N3CCN(C)CC3)ccn2c1C(=O)NCc1ccc(N2CCOCC2)cc1 [compound 254, 2-Ethyl-7-(4-methylpiperazin-1-yl)-N-(4-morpholinobenzyl)imidazo[1,2-a]pyridine-3-carboxamide]	204.8 °C	< 40	
CCc1nc2cc(C)ccn2c1C(=O)NCc1ccc(N2CCOCC2)cc1 [compound 94, 2-Ethyl-7-methyl-N-(4-morpholinobenzyl)imidazo[1,2-a]pyridine-3-carboxamide]	190 °C	< 40	
CCc1nc2ccc(F)cn2c1C(=O)NCc1ccc(N2CCC(c3ccc(OC(F)(F)F)cc3)CC2)cc1 [compound 372, 2-ethyl-6-fluoro-N-(4-(4-(4-(trifluoromethoxy)phenyl)piperidin-1-yl)benzyl)imidazo[1,2-a]pyridine-3-carboxamide]	> 167.9 °C (dec.)	< 40	
CCc1nc2c(C(F)(F)F)cccn2c1C(=O)NCc1ccc(N2CCOCC2)cc1 [compound 274, 2-Ethyl-N-(4-morpholinobenzyl)-8-(trifluoromethyl)imidazo[1,2-a]pyridine-3-carboxamide]	200.6 °C	< 40	
CCc1nc2ccc(Cl)cn2c1CO [compound 146, (6-Chloro-2-ethylimidazo[1,2-a]pyridin-3-yl)methanol]	173.2 to 174.2 °C	< 40	
CCc1nc2ccccn2c1C(=O)NCc1ccc(N2CCC(c3ccc(OC(F)(F)F)cc3)CC2)cc1 [compound 266, 2-Ethyl-N-(4-(4-(4-(trifluoromethoxy)phenyl)piperidin-1-yl)benzyl)imidazo[1,2-a]pyridine-3-carboxamide]	146 °C	> 69	< 1000
Cc1nc2ccc(Cl)cn2c1C(=O)NCc1ccc(OC(F)(F)F)cc1 [compound 184, 6-Chloro-2-methyl-N-(4-(trifluoromethoxy)benzyl)imidazo[1,2-a]pyridine-3-carboxamide]	192 to 193 °C	< 40	
CCc1nc2cc(Cl)ccn2c1C(=O)NCc1ccc(N2CCC(CO)CC2)cc1 [compound 212, 7-Chloro-2-ethyl-N-(4-(4-(hydroxymethyl)piperidin-1-yl)benzyl)imidazo[1,2-a]pyridine-3-carboxamide]	179.8 °C	< 40	
CCc1nc2ccc(Cl)cn2c1C(=O)NCc1ccc(N2CCC(C(N)=O)CC2)cc1 [compound 291, N-(4-(4-Carbamoylpiperidin-1-yl)benzyl)-6-chloro-2-ethylimidazo[1,2-a]pyridine-3-carboxamide]	257.5 °C	< 40	
CCc1nc2cc(Cl)ccn2c1C(=O)NCc1ccc(N2CCC(C(N)=O)CC2)cc1 [compound 292, N-(4-(4-Carbamoylpiperidin-1-yl)benzyl)-7-chloro-2-ethylimidazo[1,2-a]pyridine-3-carboxamide]	244 °C	< 40	
CCc1nc2cc(C)ccn2c1C(=O)NCc1ccc(Oc2ccc(OC(F)(F)F)cc2)cc1 [compound 219, 2-Ethyl-7-methyl-N-(4-(4-(trifluoromethoxy)phenoxy)benzyl)imidazo[1,2-a]pyridine-3-carboxamide]	133.6 °C	> 69	< 1000
CCc1nc2ccc(Cl)cn2c1C(=O)NCc1ccc(Oc2ccc(Cl)cc2)cc1 [compound 160, 6-Chloro-N-(4-(4-chlorophenoxy)benzyl)-2-ethylimidazo[1,2-a]pyridine-3-carboxamide]	159 to 160.7 °C	40 to 69	
CCc1nc2cc(Cl)ccn2c1COc1ccc(N2CCN(c3ccc(F)cc3)CC2)cc1 [compound 400, 7-chloro-2-ethyl-3-((4-(4-(4-fluorophenyl)piperazin-1-yl)phenoxy)methyl)imidazo[1,2-a]pyridine]	167.5 °C		< 1000
CCc1nc2ccc(Cl)cn2c1C(=O)NCc1ccc(C(F)(F)F)cc1 [compound 135, 6-Chloro-2-ethyl-N-(4-(trifluoromethyl)benzyl)imidazo[1,2-a]pyridine-3-carboxamide]	179 to 180 °C	< 40	
CCc1nc2cc(Cl)ccn2c1C(=O)NCc1ccc(C(F)(F)F)cc1 [compound 155, 7-Chloro-2-ethyl-N-(4-(trifluoromethyl)benzyl)imidazo[1,2-a]pyridine-3-carboxamide]	196.2 to 196.9 °C	< 40	
CCc1nc2cc(Cl)ccn2c1C(=O)NCc1ccc(N2CCC(c3ccc(F)cc3)CC2)cc1 [compound 250, 7-Chloro-2-ethyl-N-(4-(4-(4-fluorophenyl)piperidin-1-yl)benzyl)imidazo[1,2-a]pyridine-3-carboxamide]	182.7 °C	40 to 69	
CCc1nc2cc(Cl)ccn2c1C(=O)NCc1ccc(N2CCOCC2)cc1 [compound 93, 7-Chloro-2-ethyl-N-(4-morpholinobenzyl)imidazo[1,2-a]pyridine-3-carboxamide]	195 °C	< 40	
CCc1nc2ccc(Cl)cn2c1C(=O)NCc1nc2ccc(Cl)cc2s1 [compound 371, 6-chloro-N-((6-chlorobenzo[d]thiazol-2-yl)methyl)-2-ethylimidazo[1,2-a]pyridine-3-carboxamide]	> 220 °C	< 40	
CCc1nc2ncccn2c1C(=O)NCc1ccc(-c2ccc(Cl)cc2)cc1 [compound 386, N-((4′-Chloro-[1,1′-biphenyl]-4-yl)methyl)-2-ethylimidazo[1,2-a]pyrimidine-3-carboxamide]	184.8 °C		1000 to 20000
CCc1nc2ccc(Cl)cn2c1C(=O)OCc1ccc(Oc2ccccc2)cc1 [compound 163, 4-Phenoxybenzyl 6-chloro-2-ethylimidazo[1,2-a]pyridine-3-carboxylate]	123.3 to 123.8 °C	40 to 69	
CCc1nc2cc(Cl)ccn2c1C(=O)NCc1nc2cc(-c3ccc(OC(F)(F)F)cc3)ccc2o1 [compound 370, 7-chloro-2-ethyl-N-((5-(4-(trifluoromethoxy)phenyl)benzo[d]oxazol-2-yl)methyl)imidazo[1,2-a]pyridine-3-carboxamide]	> 220 °C	< 40	
CCc1nc2cc(Cl)ccn2c1C(=O)NCc1nc2ccc(-c3ccc(OC(F)(F)F)cc3)cc2o1 [compound 374, 7-chloro-2-ethyl-N-((6-(4-(trifluoromethoxy)phenyl)benzo[d]oxazol-2-yl)methyl)imidazo[1,2-a]pyridine-3-carboxamide]	> 220 °C	< 40	
